Laboratory results reported in PubChem BioAssay AID493003 (Sanford-Burnham Center for Chemical Genomics, 2010).

system: S. cerevisiae tim10-1 mutant growth, luminescence; assay: growth inhibitors of tim10-1 mutant yeast, dose response, luminescence, S. cerevisiae, uHTS hits (AID 493003);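 also: yeast growth measured after about 22 hours at 25 °C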

Structure (SMILES) | IC50
Nc1nc(-c2ccc(Br)s2)c(Br)s1 | 23.5 µM
O=C(Nc1ccc2c(c1)OCO2)c1cccc2c1C(=O)N(Cc1cccnc1)C2 | 41.2 µM
COc1ccc(Cl)cc1NC(=O)CN(C)C(=O)C12CC3CC(CC(Cl)(C3)C1)C2 | 9.65 µM
CCc1c(C)[nH]n(-c2nc(-c3ccccc3)cs2)c1=O | 38.4 µM
Cc1ccccc1/C=C/C(=O)c1ccc([N+](=O)[O-])o1 | 3.76 µM
O=C1NCCc2c1[nH]c1c(Cl)ccc(Cl)c21 | 47.8 µM
C/C(=N\NC(=S)NCc1ccccc1)c1ccc(Cl)s1 | 16.4 µM
COc1cc(Br)cc(/C=C/c2ccc3cccc(O)c3n2)c1O | 47.2 µM
Cn1c(-c2ccccc2O)cc2ccccc21 | 29.5 µM
Cc1cc(Nc2ccccc2Cl)nc(-c2ccccc2O)n1 | 33.2 µM
O=C(Nc1cccc(C(F)(F)F)c1)c1cccnc1NCCc1ccccc1 | 46.6 µM
CCn1c(CSc2nc3ccccc3s2)n[nH]c1=S | 49.4 µM
C[C@H]1C=CC(=O)O[C@H]1c1ccccc1 | 21 µM
N/C(=N\OC(=O)c1cccc2ccccc12)c1ccncc1 | 40.8 µM
CCOC(=O)/C=C/C(=O)OCC(=O)Nc1ccc([N+](=O)[O-])cc1 | 8.19 µM
O=C(Nc1ccc(N2CCN(C(=O)c3cccs3)CC2)cc1)c1cccc(F)c1 | 40.5 µM
S=C(NCCc1ccccc1)Nc1ccc(Nc2ccccc2)cc1 | 24.7 µM
Cc1cc(C)cc(OCCCOc2cccc3cccnc23)c1 | 32.4 µM
Cc1cc(Nc2cccc(F)c2)nc(-c2ccccc2O)n1 | 64.2 µM
O=C(CN1CCN(S(=O)(=O)c2ccc(Br)cc2)CC1)N/N=C/c1ccc(Br)s1 | 43 µM
Cc1oc2cc(Br)c(O)c(Br)c2c1C(=O)c1ccccc1 | 25.9 µM
O=C(Oc1ccc(C(=S)N2CCOCC2)cc1)c1ccccc1[N+](=O)[O-] | 25.4 µM
COc1ccc(/C(N)=N/OC(=O)CC2CCCCC2)cc1OC | 24.2 µM
Cc1ccccc1NC(=S)N(Cc1ccccn1)Cc1ccccc1Cl | 20.9 µM

Structure (SMILES) | IC50
Cc1ccc(-n2cc(-c3ccc([N+](=O)[O-])cc3)[nH]c2=S)c(C)c1 | 87.4 µM
O=C(C1CCCN(S(=O)(=O)c2cccc3nsnc23)C1)N1CCc2ccccc21 (configuration not stated) | 81.1 µM
CCOC(=O)C1CCCN(C2CC(=O)N(c3cccc(C(F)(F)F)c3)C2=O)C1 (configuration not stated) | 13.7 µM
Nc1ccccc1C(=O)/C=C/c1ccc2c(c1)OCO2 | 14.8 µM
Cc1cccc(/C=N/n2c(COc3ccccc3)n[nH]c2=S)c1 | 36.6 µM
O=C1CC(N2CCCCCC2)C(=O)N1c1ccc(F)cc1 (configuration not stated) | 13.9 µM
Oc1c(Cl)cc(Cl)cc1/C=C/c1ccc2cccc(O)c2n1 | 42.6 µM
Nc1nc(-c2ccc(Br)cc2)cs1 | 16.9 µM
C=CCc1ccc(O)c(-c2ccc(O)c(CC=C)c2)c1 | 48.8 µM
CN(C1CCCCC1)S(=O)(=O)c1ccc(NC(=O)c2ccc(Br)o2)cc1 | 30.6 µM
COc1ccc(S(=O)(=O)Nc2ccc(O)c(Sc3nc4ccccc4s3)c2)cc1 | 34.1 µM
COc1ccc(C(=O)O/N=C(\N)c2ccc(Cl)cc2)cc1 | 13.3 µM
O=C1c2cccc3cccc(c23)C(=O)N1CCN1CCN(CC(O)COc2ccc3ccccc3c2)CC1 (configuration not stated) | 19.3 µM
OCCN1CCN(CCCN2c3ccccc3Sc3ccc(C(F)(F)F)cc32)CC1 | 31.3 µM
CCOc1cc(-c2c(C#N)c(N)nc3c2CCCC3C)ccc1O (configuration not stated) | 43.8 µM
COc1ccc(Br)cc1[C@H]1[C@H]2C=CC[C@@H](C)[C@@H]2C(=O)N1Cc1ccccc1 | 7.88 µM
Oc1cc(-c2ccccc2)c2ccccc2c1 | 74.2 µM
CCOC(=O)c1ccc(N2C(=O)CC(N3CCC(C(=O)OCC)CC3)C2=O)cc1 (configuration not stated) | 15.1 µM
Cc1nn(-c2ccccc2)c2c1C1(C(=O)N(C)c3ccccc31)C(C#N)=C(N)O2 (configuration not stated) | 53.4 µM
CCCOc1ccc2c(c1)C(=NN=C(N)N)c1cc(OCCC)ccc1-2 | 19.8 µM
c1ccc(Nc2cccc(Nc3ccccc3)n2)cc1 | 14.2 µM
N/C(=N\OC(=O)CCC1CCCC1)c1ccccc1 | 16.7 µM
Cc1nn(Cc2c(F)c(F)c(F)c(F)c2F)c(C)c1NC(=O)c1ccc(COc2ccccc2Cl)o1 | 60.3 µM
